Patent US8119616B2, “Formulation of quinazoline based EGFR inhibitors containing a zinc binding moiety” (Curis, Inc., priority 2007, dated 2012)

Tests used:
human EGFR = target: T1, human EGFR (Homo sapiens, UniProt P00533); assay: HTScan EGF Receptor Kinase assay; format: biochemical; details: FIG. 1
T1 construct: human EGFR (His672-Ala1210); purchased Cell Signaling Technologies; host or cells: baculovirus expression system
Experimental: The ability of compounds to inhibit receptor kinase (EGFR) activity was assayed using HTScan™ EGF Receptor Kinase Assay Kits (Cell Signaling Technologies, Danvers, Mass.). […] The protein was purified by one-step affinity chromatography using glutathione-agarose.
Immediately transfer enzyme from −80° C. to ice. Allowed enzyme to thaw on ice. […] Returned immediately to ice. […] Incubated reaction plate at room temperature for 30 minutes. […] Added 100 μl/well primary antibody. Incubated at room temperature for 60 minutes. […] Added 100 μl/well diluted antibody. Incubated at room temperature for 30 minutes. […] Incubated at room temperature for 5 minutes.

Breast_MCF7 = assay: Cell proliferation assay (ATPlite); format: cell-based; details: 72 hours, 0.5% fetal bovine serum
Experimental: (§1) A representative number of compounds were assayed against several different cell lines using the cell proliferation assay:
(§2) Cell Proliferation Assay:
(§3) Cancer cell lines were plated at 5,000 to 10,000 per well in 96-well flatted bottomed plates with various concentration of compounds. The cells were incubated with compounds for 72 hours in the presence of 0.5% of fetal bovine serum. Growth inhibition was accessed by adenosine triphosphate (ATP) content assay using Perkin Elmer ATPlite kit. ATPlite is an ATP monitoring system based on firefly luciferase. Briefly, 25 μl of mammalian cell lysis solution was added to 50 μl of phenol red-free culture medium per well to lyse the cells and stabilize the ATP. 25 μl of substrate solution was then added to the well and subsequently the luminescence was measured.

Breast_MDAMB468 = assay: Cell proliferation assay (ATPlite); format: cell-based; details: 72 hours, 0.5% fetal bovine serum
Experimental: as §1, §2, §3

Breast_SkBr3 = assay: Cell proliferation assay (ATPlite); format: cell-based; details: 72 hours, 0.5% fetal bovine serum
Experimental: as §1, §2, §3

Colon_HCT116 = assay: Cell proliferation assay (ATPlite); format: cell-based; details: 72 hours, 0.5% fetal bovine serum
Experimental: as §1, §2, §3

Epidermoid_A431 = assay: Cell proliferation assay (ATPlite); format: cell-based; details: 72 hours, 0.5% fetal bovine serum
Experimental: as §1, §2, §3

Lung_H2122 = assay: Cell proliferation assay (ATPlite); format: cell-based; details: 72 hours, 0.5% fetal bovine serum
Experimental: as §1, §2, §3

Lung_H292 = assay: Cell proliferation assay (ATPlite); format: cell-based; details: 72 hours, 0.5% fetal bovine serum
Experimental: as §1, §2, §3

Lung_H358 = assay: Cell proliferation assay (ATPlite); format: cell-based; details: 72 hours, 0.5% fetal bovine serum
Experimental: as §1, §2, §3

Lung_H460 = assay: Cell proliferation assay (ATPlite); format: cell-based; details: 72 hours, 0.5% fetal bovine serum
Experimental: as §1, §2, §3

Pancreas_BxPC3 = assay: Cell proliferation assay (ATPlite); format: cell-based; details: 72 hours, 0.5% fetal bovine serum
Experimental: as §1, §2, §3

Pancreas_CFPAC = assay: Cell proliferation assay (ATPlite); format: cell-based; details: 72 hours, 0.5% fetal bovine serum
Experimental: as §1, §2, §3

Pancreas_Capan1 = assay: Cell proliferation assay (ATPlite); format: cell-based; details: 72 hours, 0.5% fetal bovine serum
Experimental: as §1, §2, §3

Pancreas_HPAC = assay: Cell proliferation assay (ATPlite); format: cell-based; details: 72 hours, 0.5% fetal bovine serum
Experimental: as §1, §2, §3

Pancreas_MiaPaCa2 = assay: Cell proliferation assay (ATPlite); format: cell-based; details: 72 hours, 0.5% fetal bovine serum
Experimental: as §1, §2, §3

Pancreas_PANC1 = assay: Cell proliferation assay (ATPlite); format: cell-based; details: 72 hours, 0.5% fetal bovine serum
Experimental: as §1, §2, §3

Prostate_22RV1 = assay: Cell proliferation assay (ATPlite); format: cell-based; details: 72 hours, 0.5% fetal bovine serum
Experimental: as §1, §2, §3

Prostate_PC3 = assay: Cell proliferation assay (ATPlite); format: cell-based; details: 72 hours, 0.5% fetal bovine serum
Experimental: as §1, §2, §3

[1] = test system: various cancer cell lines; assay: Anti-proliferative activity in various cancer cell lines (Table D, FIG. 3); format: cell-based; details: five major types of cancer (lung, breast, prostate, colon, and pancreas)
Experimental: as §2, §3
Table D illustrates the potency of compounds of the invention.

[2] = test system: HCT-116 (colon) and SKBr3 (breast) cancer cells; assay: Induction of apoptosis (Caspase 3&7 activity); format: cell-based; details: HCT-116 and SKBr3, 24 hours
A549 NSCLC = A549 NSCLC Xenograft model; format: in vivo, mice; details: compared with vehicle or control
Experimental: A representative protocol for the in vivo experiment is as followed:
1-10×10^6 human cancer cells were implanted subcutaneously to the athymic (nu/nu) mice. When the tumors reached about 100 mm^3 in volume, the mice were treated with the compound by tail vein infusion. Routinely 5 groups (8-12 mice per group) are needed for a typical efficacy study, including one negative control, one positive control, and three testing groups for 3 dose levels of the same compound. Usually a 7-7-5 (on-off-on) regimen was used for one typical study. The tumor size was measured with an electronic caliper and body weight measured with a scale twice weekly. The tumors were removed from euthanized mice at the end of the study. One half of each tumor was frozen in dry ice and stored at −80° C. for PK or Western blot analysis. The other half was fixed with formalin. The fixed tissues were processed, embedded in paraffin and sectioned for immunohistochemistry staining. Protocol for Radioisotope assay for HER2

[3] = both, Sprague Dawley, rat, in vivo, iv, 8 days
Experimental: Single dosing MTD in rats • a. Sprague Dawley, male and female, 240-260 gram • b. Dosing at 0, 25, 50, 100, 200 mg/kg, iv infusion 5 min • c. 6 rats per group (3 male and 3 female)
(§4) Stock solution is diluted with 30% CAPTISOL before use.

[4] = both, Sprague Dawley, rat, in vivo, iv, 7 days
Experimental: 7-day multiple dosing MTD in rats • a. Sprague Dawley, male and female, 220-250 gram • b. Dose, 25, 50, 100, 200 mg/kg/d) iv infusion 5 min • c. 6 per group (3 male and 3 female) • d. Blood and organs will be collected 2 hr after last dosing on Day 7 for hematology Compound Preparation
as §4

T1 sequence (P00533 672-1210): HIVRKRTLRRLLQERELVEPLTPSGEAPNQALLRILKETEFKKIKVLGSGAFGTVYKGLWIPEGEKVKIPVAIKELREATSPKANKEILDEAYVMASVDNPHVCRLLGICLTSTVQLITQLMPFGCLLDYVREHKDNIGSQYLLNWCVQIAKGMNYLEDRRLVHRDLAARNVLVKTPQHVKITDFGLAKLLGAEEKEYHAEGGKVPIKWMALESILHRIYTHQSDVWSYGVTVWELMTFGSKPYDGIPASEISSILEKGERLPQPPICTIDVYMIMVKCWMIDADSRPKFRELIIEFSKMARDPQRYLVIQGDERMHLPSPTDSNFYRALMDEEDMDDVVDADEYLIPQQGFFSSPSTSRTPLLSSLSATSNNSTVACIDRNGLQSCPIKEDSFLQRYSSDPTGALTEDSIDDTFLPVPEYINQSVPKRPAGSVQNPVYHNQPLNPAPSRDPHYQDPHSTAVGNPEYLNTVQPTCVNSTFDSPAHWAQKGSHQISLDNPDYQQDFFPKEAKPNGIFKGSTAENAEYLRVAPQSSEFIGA

## C#Cc1cccc(Nc2ncnc3cc(OC)c(OCCCCCCC(=O)NO)cc23)c1 [Compound 12, 7-(4-(3-ethynylphenylamino)-7-methoxyquinazolin-6-yloxy)-N-hydroxyheptanamide]
Human EGFR
  activity in EFGR enzyme assay compared with erlotinib and SAHA: more active than erlotinib and SAHA
Breast_MCF7
  IC50: < 100 nM
Breast_MDAMB468
  IC50: < 100 nM
Breast_SkBr3
  IC50: 100 to 1000 nM
Colon_HCT116
  IC50: 100 to 1000 nM
Epidermoid_A431
  IC50: 100 to 1000 nM
Lung_H2122
  IC50: 100 to 1000 nM
Lung_H292
  IC50: < 100 nM
Lung_H358
  IC50: 100 to 1000 nM
Lung_H460
  IC50: 100 to 1000 nM
Pancreas_BxPC3
  IC50: < 100 nM
Pancreas_CFPAC
  IC50: 100 to 1000 nM
Pancreas_Capan1
  IC50: 100 to 1000 nM
Pancreas_HPAC
  IC50: 1000 to 10000 nM
Pancreas_MiaPaCa2
  IC50: 100 to 1000 nM
Pancreas_PANC1
  IC50: 100 to 1000 nM
Prostate_22RV1
  IC50: 100 to 1000 nM
Prostate_PC3
  IC50: 100 to 1000 nM
[1]
  response of cell lines compared with a combination of erlotinib and SAHA: responded better to compound 12 than a combination of erlotinib and SAHA
[2]
  cell apoptosis as measured by increased Caspase 3&7 activity: 4-11 times
A549 NSCLC
  effect on tumor size / tumor growth: attenuated tumor growth
[3]
  dose that did not result in a significant change in body weight: up to 200 mg/kg
[4]
  dose that did not result in a significant change in body weight or food consumption: up to 100 mg/kg
